Paper PMC11930985 (Nature Communications, 2025)
Converted amounts (≈) assume the structure as drawn. Like-named read-outs stand apart in the source and are kept apart here.

Tests used:
Ret [1] = test system: Ret; set-up: method as in Investigator's Brochure (IB) version 5.0; details: ref Investigator's Brochure (IB) version 5.0; cited from earlier work
Flt4 = test system: Flt4; set-up: method as in Investigator's Brochure (IB) version 5.0; details: ref Investigator's Brochure (IB) version 5.0; cited from earlier work
pS6 S235/S236 = experiment: CyTOF maximal inhibition in Undefined/Immature Myeloid cells: pS6; type: in vivo; details: Homo sapiens, N = 12 patients, read-out: EC50 (± standard error), pS6 S235/S236 inhibition
Excerpt: Pharmacodynamic endpoints included the measurement of inhibition of pAXL, pERK, pAKT, pS6 and pSTAT1/3/5 in blast cells (defined as cells with abnormal surface marker expression as compared to healthy donor peripheral blood mononuclear cells and undefined/immature myeloid cells (defined as cells carrying myeloid markers but lacking distinguishing terminal differentiation markers). Mass cytometry time of flight (CyTOF) was used for the determination of the pharmacodynamic markers using a previously validated and tested panel of mass-tagged antibodies[39],[40]. The antibodies in the panel are listed in Supplementary Table 5. Briefly, fixed leukocytes from peripheral blood were barcoded using a 20-plex metal barcoding kit (Standard Biotools, Cell-ID 201060) according to manufacturer’s protocol, allowing all the samples from a single individual to be stained and analysed in parallel. All analysis runs included barcoded peripheral blood mononuclear cells (PBMCs) from at least one healthy donor and an identical barcoded reference sample (mix of PBMCs from six healthy donors). […]
For each population, marker, and sample, the 95th percentile of the non-transformed expression values was calculated. […]

Tie2 = biological target: Tie2; set-up: method as in Investigator's Brochure (IB) version 5.0; details: ref Investigator's Brochure (IB) version 5.0; cited from earlier work
AML cell lines = test system: AML cell lines; set-up: method as in Investigator's Brochure (IB) version 5.0; details: ref Investigator's Brochure (IB) version 5.0, cited from earlier work
Ret [2] = biological target: Ret; set-up: method as in Investigator's Brochure (IB) version 5.0; details: ref Investigator's Brochure (IB) version 5.0; cited from earlier work; remark: listed apart in the source
AML/MDS patients = experiment: ECG QTcF prolongation (Fridericia), graded; type: in vivo
Protocol: Electrocardiograms were obtained at screening, Cycle 1 Day 1–4, 8, and 15, Cycle 2 Day 1, 8 and 15, at Day 1 of each cycle thereafter, (up to and including Cycle 15), and at Final Study Visit. QT prolongation was assessed using the Fridericia correction QTcF=QT/RR3 [34]. Severity of QTcF prolongation was defined as follows: Grade 1: maximum prolongation 450–480 ms; Grade 2: maximum prolongation 481-500 ms; Grade 3: ≥501 ms on at least two separate ECGs; Grade 4: ≥501 ms or >60 ms change from baseline, with Torsades de pointes, polymorphic ventricular tachycardia or signs/symptoms of serious arrythmia; Grade 5: Death.

monkeys [3] = test system: monkeys; set-up: method as in Investigator's Brochure (IB) version 5.0; details: 28-day repeat dose; ref Investigator's Brochure (IB) version 5.0; cited from earlier work
hERG channel = test system: hERG channel; set-up: method as in Investigator's Brochure (IB) version 5.0; details: ref Investigator's Brochure (IB) version 5.0; cited from earlier work
Flt1 [4] = test system: Flt1; set-up: method as in Investigator's Brochure (IB) version 5.0; details: ref Investigator's Brochure (IB) version 5.0; cited from earlier work
healthy male subjects = test system: healthy male subjects; set-up: method as in Protocol BGBC001; details: ref Protocol BGBC001, cited from earlier work
Flt1 [5] = test system: Flt1; set-up: method as in Investigator's Brochure (IB) version 5.0; details: ref Investigator's Brochure (IB) version 5.0; cited from earlier work; remark: listed apart in the source
monkeys [6] = test system: monkeys; set-up: method as in Investigator's Brochure (IB) version 5.0; details: ref Investigator's Brochure (IB) version 5.0, cited from earlier work

Nc1nc(Nc2ccc3c(c2)CC[C@@H](N2CCCC2)CC3)nn1-c1cc2c(nn1)-c1ccccc1CCC2 [Bemcentinib]
IC50 (Ret [1]): > 316 nM | IC50 (Flt4): > 1000 nM | EC50 (pS6 S235/S236): 0.1187 ± 0.0011 µg/mL (≈ 0.234 µM) | Kd (Tie2): 270 nM | Effect when administered with cytarabine (Ara-C) (AML cell lines; preliminary studies): at least additive | Effect of exposure in AML cell lines (AML cell lines; with G1 arrest, reduced phosphorylated axl and ERK): exposure-induced differentiation | Kd (Ret [2]): 73 nM | Grade 4 or Grade 5 QTcF prolongation events (AML/MDS patients; DE and LDAC cohorts): No patients | No. of QTcF prolonged events: Grade 5 (AML/MDS patients; Dose Escalation Cohort Overall (N=36)): 0 | No. of QTcF prolonged events: Grade 1 (AML/MDS patients; human, in vivo): 8 | No. of QTcF prolonged events: Grade 2 (AML/MDS patients; human, in vivo): 7 | No. of QTcF prolonged events: Grade 3 (AML/MDS patients; human, in vivo): 5 | No. of QTcF prolonged events: Grade 4 (AML/MDS patients; human, in vivo): 0 | Patients with only Grade 1 or Grade 2 QTcF prolongation / patients with QTcF prolongation (AML/MDS patients; human, in vivo): 5/9 | Patients with Grade 3 QTcF prolongation (AML/MDS patients; in vivo): Four | Target organs (monkeys [3]): liver, reticuloendothelial system and haematopoietic system | IC50 (hERG channel): 530 nM | IC50 (Flt1 [4]): 40 nM | Non-Cardiac Chest Pain, Maximum Grade (CTCAE version 4.0) (healthy male subjects; 50 mg, 4 fasted, 1 fed): One | Orthostatic hypotension, Maximum Grade (CTCAE version 4.0) (healthy male subjects; 100 mg, 4 fasted, 2 fed): One | Abdominal Distension x 2, Maximum Grade (CTCAE version 4.0) (healthy male subjects; 150 mg, 4 fasted, 1 fed): One | Diarrhoea, Maximum Grade (CTCAE version 4.0) (healthy male subjects; 400 mg, 4 fasted, 2 fed): One | Diarrhoea, Maximum Grade (CTCAE version 4.0) (healthy male subjects; 600 mg, 4 fasted): One | Flatulence, Maximum Grade (CTCAE version 4.0) (healthy male subjects; 600 mg, 4 fasted): One | Nausea x 2, Maximum Grade (CTCAE version 4.0) (healthy male subjects; 600 mg, 4 fasted): One | Nausea, Maximum Grade (CTCAE version 4.0) (healthy male subjects; 1000 mg, 4 fasted): One | Diarrhoea, Maximum Grade (CTCAE version 4.0) (healthy male subjects; 1500 mg, 4 fasted): One | Dizziness, Maximum Grade (CTCAE version 4.0) (healthy male subjects; 1500 mg, 4 fasted): One | Headache, Maximum Grade (CTCAE version 4.0) (healthy male subjects; 1500 mg, 4 fasted): One | Nausea, Maximum Grade (CTCAE version 4.0) (healthy male subjects; 1500 mg, 4 fasted): Two | Vomiting, Maximum Grade (CTCAE version 4.0) (healthy male subjects; 1500 mg, 4 fasted): Two | Serious adverse events (SAE) (healthy male subjects; single dose 50-1500 mg): No serious adverse events | IC50 (Flt1 [5]): > 1000 nM | QTc change compared to vehicle control and pre-dose values (monkeys [6]; 7.5 mg/kg and 15 mg/kg single oral): below 10% | Heart rate (monkeys [6]; 7.5 mg/kg – 60 mg/kg single oral): recoverable, non-adverse decreases | Magnitude of the QTc effect (monkeys [6]; highest dose level (60 mg/kg single oral)): 17%
